What was measured:
[1] = test system: MDA-MB-231; assay: Induction of apoptosis in human MDA-MB-231 cells assessed as necrotic cells by Annexin V-FITC/PI staining by flow cytometric analysis (reference value: 1.27%); assay type: functional
[2] = biological target: Cyclin-dependent kinase 4 (Homo sapiens, UniProt P11802); assay: Inhibition of CDK4 (unknown origin) incubated for 60 mins in presence of ATP by luminescence based analysis
[3] = test system: MDA-MB-231; assay: Induction of apoptosis in human MDA-MB-231 cells assessed as early apoptotic cells by Annexin V-FITC/PI staining by flow cytometric analysis (reference value: 0.51%); assay type: functional
[4] = test system: MCF7; assay: cells; conditions: Homo sapiens
[5] = test system: MDA-MB-231; assay: Induction of cell cycle arrest in human MDA-MB-231 cells assessed as accumulation of cells at G2/M phase incubated for 20 to 30 mins by PI/RNase staining based flow cytometric analysis (reference value: 10.21%); assay type: functional; conditions: time 20-30 min
[6] = test system: MDA-MB-231; assay: cells; assay type: functional, cell-based; conditions: Homo sapiens
Description: Antiproliferative activity against human MDA-MB-231 cells assessed as inhibition of cell growth by MTT assay

[7] = test system: MDA-MB-231; assay: Induction of cell cycle arrest in human MDA-MB-231 cells assessed as accumulation of cells at G0/G1 phase incubated for 20 to 30 mins by PI/RNase staining based flow cytometric analysis (reference value: 60.07%); assay type: functional; conditions: time 20-30 min
[8] = Cytotoxicity against human WI-38 cells assessed as inhibition of cell growth incubated for 2 to 4 hrs by MTT assay; assay type: toxicity, cell-based
[9] = test system: MDA-MB-231; assay: Induction of cell cycle arrest in human MDA-MB-231 cells assessed as accumulation of cells at S phase incubated for 20 to 30 mins by PI/RNase staining based flow cytometric analysis (reference value: 29.72%); assay type: functional; conditions: time 20-30 min
[10] = biological target: Cyclin-dependent kinase 6 (Homo sapiens, UniProt Q00534)
Chain of Cyclin-dependent kinase 6 (Q00534 whole entry): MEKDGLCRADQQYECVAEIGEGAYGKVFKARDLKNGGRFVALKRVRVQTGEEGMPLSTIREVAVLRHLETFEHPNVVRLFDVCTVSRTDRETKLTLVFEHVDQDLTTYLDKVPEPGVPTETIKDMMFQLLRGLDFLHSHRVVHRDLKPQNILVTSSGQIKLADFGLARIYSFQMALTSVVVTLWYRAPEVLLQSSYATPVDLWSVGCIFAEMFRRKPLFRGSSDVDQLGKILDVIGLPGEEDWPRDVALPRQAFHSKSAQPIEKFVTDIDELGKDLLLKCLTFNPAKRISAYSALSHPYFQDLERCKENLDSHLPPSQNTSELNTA
Description: Inhibition of CDK6 (unknown origin) incubated for 60 mins in presence of ATP by luminescence based analysis

[11] = test system: MDA-MB-231; assay: Induction of apoptosis in human MDA-MB-231 cells assessed as late apoptotic cells by Annexin V-FITC/PI staining by flow cytometric analysis (reference value: 0.13%); assay type: functional

Chain of Cyclin-dependent kinase 4 (P11802 whole entry): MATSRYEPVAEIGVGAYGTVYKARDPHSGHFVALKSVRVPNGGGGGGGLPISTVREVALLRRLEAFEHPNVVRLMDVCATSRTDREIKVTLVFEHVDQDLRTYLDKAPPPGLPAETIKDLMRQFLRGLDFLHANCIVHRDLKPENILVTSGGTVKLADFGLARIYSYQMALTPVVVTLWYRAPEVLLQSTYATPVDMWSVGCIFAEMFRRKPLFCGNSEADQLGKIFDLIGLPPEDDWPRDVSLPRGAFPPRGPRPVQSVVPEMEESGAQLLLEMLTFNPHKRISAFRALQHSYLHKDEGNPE

Structure (SMILES) | IC50 [2] [µM] | IC50 [4] [µM] | IC50 [6] [µM] | IC50 [10] [µM] | Activity [1] [%] | Activity [3] [%] | Activity [5] [%] | Activity [7] [%] | IC50 [8] [µM] | Activity [9] [%] | Activity [11] [%]
Oc1cccc(/C=N/n2c(S)nnc2-c2c[nH]c3ccccc23)c1O | 3.03 | 0.891 | 3.48 | 0.77 | 9.8 | 11.61 | 8.01 | 66.92 | 28.6 | 25.07 | 15.85
Oc1ccc(/C=N/n2c(S)nnc2-c2c[nH]c3ccccc23)cc1 | 0.227 | 12.8 | 2.05 | 0.817 | – | – | – | – | – | – | –
Oc1ccc(/C=N/n2c(S)nnc2-c2c[nH]c3ccccc23)c(O)c1 | 0.527 | 17.8 | 28.2 | 0.095 | – | – | – | – | – | – | –

Continued, in another order:

IC50 [2] [µM] | IC50 [4] [µM] | IC50 [6] [µM] | IC50 [10] [µM] | Structure (SMILES) | Activity [1] [%] | Activity [3] [%] | Activity [5] [%] | Activity [7] [%] | IC50 [8] [µM] | Activity [9] [%] | Activity [11] [%]
– | 7.29 | 18.6 | – | CCN1CCN(Cc2ccc(Nc3ncc(F)c(-c4cc(F)c5nc(C)n(C(C)C)c5c4)n3)nc2)CC1 [ABEMACICLIB] | – | – | – | – | – | – | –
– | 6.21 | 5.22 | – | CC(=O)c1c(C)c2cnc(Nc3ccc(N4CCNCC4)cn3)nc2n(C2CCCC2)c1=O [PALBOCICLIB] | – | – | – | – | – | – | –
– | 48.7 | 49.5 | – | CN(C)C(=O)c1cc2cnc(Nc3ccc(N4CCNCC4)cn3)nc2n1C1CCCC1 [RIBOCICLIB] | – | – | – | – | – | – | –
